# Experimental data from patent US8802597B2, “Herbicidal pyrimidines” (E I du Pont de Nemours and Company, priority 2003, dated 2014).
# Where two headings read alike, the source gives them in different places.
# Experiments:
# Type in all cases: in vivo
# [1] = test system: Surinam grass (Brachiaria decumbens); experiment: Test B pre/postemergence; conditions: for pest or weed control at 62 g/ha: Urochloa decumbens, 62 g ai/ha
# Summary of the method: (§1)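 Formulation: non-phytotoxic solvent blend with surfactant. Timing: preemergence on seeds, postemergence at 1- to 4-leaf (2–18 cm). Assessment: visual, 0–100 against controls, after 13–15 days' greenhouse growth.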
# [2] = test system: barnyardgrass (Echinochloa crus-galli); experiment: Test B pre/postemergence; conditions: scale 0 to 100 (0 no effect, 100 complete control); for pest or weed control at 62 g/ha: Echinochloa crus-galli, 62 g ai/ha
# Summary of the method: as §1
# [3] = test system: cocklebur (Xanthium strumarium); experiment: Test B pre/postemergence; conditions: for pest or weed control at 62 g/ha: Xanthium strumarium, 62 g ai/ha
# Summary of the method: as §1
# corn (Zea mays) = experiment: Test B pre/postemergence
# Summary of the method: as §1
# [4] = test system: crabgrass (Digitaria sanguinalis); experiment: Test B pre/postemergence; conditions: for pest or weed control at 62 g/ha: Digitaria sanguinalis, 62 g ai/ha
# Summary of the method: as §1
# [5] = test system: giant foxtail (Setaria faberii); experiment: Test B pre/postemergence; conditions: for pest or weed control at 62 g/ha: Setaria faberi, 62 g ai/ha
# Summary of the method: as §1
# [6] = test system: lambsquarters (Chenopodium album); experiment: Test B pre/postemergence; conditions: for pest or weed control at 62 g/ha: Chenopodium album, 62 g ai/ha
# Summary of the method: as §1
# [7] = test system: morningglory (Ipomoea coccinea); experiment: Test B pre/postemergence; conditions: for pest or weed control at 62 g/ha: Ipomoea, 62 g ai/ha
# Summary of the method: as §1
# [8] = test system: pigweed (Amaranthus retroflexus); experiment: Test B pre/postemergence; conditions: for pest or weed control at 62 g/ha: Amaranthus retroflexus, 62 g ai/ha
# Summary of the method: as §1
# [9] = test system: velvetleaf (Abutilon theophrasti); experiment: Test B pre/postemergence; conditions: for pest or weed control at 62 g/ha: Abutilon theophrasti, 62 g ai/ha
# Summary of the method: as §1
# [10] = test system: wheat (Triticum aestivum); experiment: Test B pre/postemergence; conditions: scale 0 to 100 (0 no effect, 100 complete control); for plant injury at 62 g/ha: Triticum aestivum, 62 g ai/ha
# Summary of the method: as §1
# [11] = test system: blackgrass (Alopecurus myosuroides); experiment: Test B postemergence; conditions: scale 0 to 100 (0 no effect, 100 complete control)
# Summary of the method: as §1
# wild oat (Avena fatua) = experiment: Test B postemergence; conditions: scale 0 to 100 (0 no effect, 100 complete control)
# Summary of the method: as §1
# [12] = test system: barnyardgrass (Echinochloa crus-galli); experiment: Test B flooded paddy test; conditions: Echinochloa crus-galli, Flood, scale 0 to 100, read-out: Plant response rating, Barnyardgrass
# Summary of the method: (§2)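 Rice, umbrella sedge, duck salad and barnyardgrass grown to 2-leaf stage under flooded paddy conditions and treated with formulated test chemicals. Kept in greenhouse 13–15 days, then visually rated against untreated controls on a 0–100 scale (0 no effect, 100 complete control).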
# [13] = test system: duck salad (Heteranthera limosa); experiment: Test B flooded paddy test; conditions: Heteranthera limosa, Flood, scale 0 to 100, read-out: Plant response rating, Ducksalad
# Summary of the method: as §2
# rice (Oryza sativa) = experiment: Test B flooded paddy test; conditions: Oryza sativa, Flood, scale 0 to 100, read-out: Plant response rating, Rice
# Summary of the method: as §2
# [14] = test system: umbrella sedge (Cyperus difformis); experiment: Test B flooded paddy test; conditions: Cyperus difformis, Flood, scale 0 to 100, read-out: Plant response rating, Sedge, Umbrella
# Summary of the method: as §2
# [15] = Postemergence, 125 g ai/ha, scale 0 to 100 (0 no effect, 100 complete control)
# [16] = Preemergence, 125 g ai/ha, scale 0 to 100 (0 no effect, 100 complete control)
structure (smiles),measurement,setting,value
"Nc1nc(C2CC2)nc(C(=O)[O-])c1Br.[Na+] [Compound 113, 6-amino-5-bromo-2-cyclopropyl-4-pyrimidinecarboxylic acid monosodium salt]",Surinam Grass plant response rating,[1]; [15],80
same,"Plant response rating, Surinam Grass",[1]; [16],60
same,pest or weed control at 62 g/ha,"[1]; post-emergence, Postemergence, scale 0 to 100 (0 no effect, 100 complete control), read-out: Surinam Grass plant response rating",30%
same,pest or weed control at 62 g/ha,"[1]; pre-emergence, Preemergence, scale 0 to 100, 0 no effect, 100 complete control, read-out: Plant response rating, Surinam Grass",20%
same,pest or weed control at 62 g/ha,"[2]; post-emergence, Postemergence, read-out: Barnyardgrass plant response rating",50%
same,pest or weed control at 62 g/ha,"[2]; pre-emergence, Preemergence, read-out: Plant response rating, Barnyardgrass",0%
same,Barnyardgrass plant response rating,"[2]; Postemergence, 125 g ai/ha",80
same,"Plant response rating, Barnyardgrass","[2]; Preemergence, 125 g ai/ha",20
same,Cocklebur plant response rating,[3]; [15],90
same,"Plant response rating, Cocklebur",[3]; [16],80
same,pest or weed control at 62 g/ha,"[3]; post-emergence, Postemergence, scale 0 to 100 (0 no effect, 100 complete control), read-out: Cocklebur plant response rating",90%
same,pest or weed control at 62 g/ha,"[3]; pre-emergence, Preemergence, scale 0 to 100, 0 no effect, 100 complete control, read-out: Plant response rating, Cocklebur",70%
same,Corn plant response rating,corn (Zea mays); [15],40
same,"Plant response rating, Corn",corn (Zea mays); [16],20
same,plant injury at 62 g/ha,"corn (Zea mays); Zea mays, post-emergence, Postemergence, 62 g ai/ha, scale 0 to 100 (0 no effect, 100 complete control), read-out: Corn plant response rating",10%
same,"Corn plant response rating (crop injury, 0 = no effect, 100 = complete kill) at 62 g/ha","corn (Zea mays); Zea mays, pre-emergence, Preemergence, 62 g ai/ha, scale 0 to 100, 0 no effect, 100 complete control",0%
same,pest or weed control at 62 g/ha,"[4]; post-emergence, Postemergence, scale 0 to 100 (0 no effect, 100 complete control), read-out: Crabgrass plant response rating",20%
same,pest or weed control at 62 g/ha,"[4]; pre-emergence, Preemergence, scale 0 to 100, 0 no effect, 100 complete control, read-out: Plant response rating, Crabgrass",40%
same,Crabgrass plant response rating,[4]; [15],40
same,"Plant response rating, Crabgrass",[4]; [16],70
same,"Foxtail, Giant plant response rating",[5]; [15],50
same,"Plant response rating, Foxtail, Giant",[5]; [16],10
same,pest or weed control at 62 g/ha,"[5]; post-emergence, Postemergence, scale 0 to 100 (0 no effect, 100 complete control), read-out: Foxtail, Giant plant response rating",20%
same,pest or weed control at 62 g/ha,"[5]; pre-emergence, Preemergence, scale 0 to 100, 0 no effect, 100 complete control, read-out: Plant response rating, Foxtail, Giant",0%
same,pest or weed control at 62 g/ha,"[6]; post-emergence, Postemergence, scale 0 to 100 (0 no effect, 100 complete control), read-out: Lambsquarters plant response rating",80%
same,pest or weed control at 62 g/ha,"[6]; pre-emergence, Preemergence, scale 0 to 100, 0 no effect, 100 complete control, read-out: Plant response rating, Lambsquarters",70%
same,Lambsquarters plant response rating,[6]; [15],90
same,"Plant response rating, Lambsquarters",[6]; [16],80
same,pest or weed control at 62 g/ha,"[7]; post-emergence, Postemergence, scale 0 to 100 (0 no effect, 100 complete control), read-out: Morningglory plant response rating",90%
same,pest or weed control at 62 g/ha,"[7]; pre-emergence, Preemergence, scale 0 to 100, 0 no effect, 100 complete control, read-out: Plant response rating, Morningglory",50%
same,Morningglory plant response rating,[7]; [15],90
same,"Plant response rating, Morningglory",[7]; [16],60
same,pest or weed control at 62 g/ha,"[8]; post-emergence, Postemergence, scale 0 to 100 (0 no effect, 100 complete control), read-out: Pigweed plant response rating",70%
same,pest or weed control at 62 g/ha,"[8]; pre-emergence, Preemergence, scale 0 to 100, 0 no effect, 100 complete control, read-out: Plant response rating, Pigweed",70%
same,Pigweed plant response rating,[8]; [15],90
same,"Plant response rating, Pigweed",[8]; [16],90
same,pest or weed control at 62 g/ha,"[9]; post-emergence, Postemergence, scale 0 to 100 (0 no effect, 100 complete control), read-out: Velvetleaf plant response rating",60%
same,pest or weed control at 62 g/ha,"[9]; pre-emergence, Preemergence, scale 0 to 100, 0 no effect, 100 complete control, read-out: Plant response rating, Velvetleaf",80%
same,Velvetleaf plant response rating,[9]; [15],80
same,"Plant response rating, Velvetleaf",[9]; [16],90
same,Wheat plant response rating,"[10]; Postemergence, 125 g ai/ha",50
same,"Plant response rating, Wheat","[10]; Preemergence, 125 g ai/ha",60
same,plant injury at 62 g/ha,"[10]; post-emergence, Postemergence, read-out: Wheat plant response rating",30%
same,plant injury at 62 g/ha,"[10]; pre-emergence, Preemergence, read-out: Plant response rating, Wheat",10%
same,Blackgrass plant response rating,[11]; 125 g ai/ha,40
same,pest or weed control at 62 g/ha,"[11]; Alopecurus myosuroides, post-emergence, 62 g ai/ha, read-out: Blackgrass plant response rating",30%
same,"Oat, Wild plant response rating",wild oat (Avena fatua); 125 g ai/ha,50
same,pest or weed control at 62 g/ha,"wild oat (Avena fatua); Avena fatua, post-emergence, 62 g ai/ha, read-out: Oat, Wild plant response rating",40%
same,pest or weed control at 125 g/ha,[12]; 125 g ai/ha,0%
same,pest or weed control at 500 g/ha,[12]; 500 g ai/ha,0%
same,pest or weed control at 125 g/ha,[13]; 125 g ai/ha,0%
same,pest or weed control at 500 g/ha,[13]; 500 g ai/ha,0%
same,plant injury at 125 g/ha,rice (Oryza sativa); 125 g ai/ha,0%
same,plant injury at 500 g/ha,rice (Oryza sativa); 500 g ai/ha,0%
same,pest or weed control at 125 g/ha,[14]; 125 g ai/ha,0%
same,pest or weed control at 500 g/ha,[14]; 500 g ai/ha,0%
